Assay [1] relates to endothelium. As to the kind of experiment: Endothelium-dependent vascular relaxation in normal animals and animals with vitamin D2-induced vascular aging (background statement). The following applies: normal animals and animals with vascular aging produced by high doses of vitamin D2. The source says: This effect is observed both in normal animals and in those in which vascular aging has been produced experimentally by means of the administration of high doses of vitamin D2. This activity of calcium dobesilate, of ethamsylate and of persilate may be reflected in man by effects which are therapeutically useful. […] Rosen, “The Pharmacology of Sexual Function and Dysfunction”, edited by J. Bancroft, Elsevier Sc., 1995, cages 277-287). The normalization of the endothelial function obtained with calcium dobesilate, ethamsylate and persilate can represent an entirely novel therapeutic approach to the problem of impotence (I. Saenz de Tejada et al., N. Engl. J. Med., 1989, 320, 1025-1030), both in patients with vascular disorders with various causes (diabetes, arteriosclerosis, and the like) and in patients where only a functional disorder can be detected.

In assay [2] the test system is aortas isolated from male rabbits. As to the kind of experiment: Effect on the basal tension in aorta arteries with and without endothelium (basal tension 2 grams). It is filed as cell-based, rabbit. The following applies: concentrations between 10^−8M and 10^−4. The method, then: (§1) The studies were carried out by using the aortas isolated from male rabbits according to the techniques described by A. Quintana et al. (Europ. J. Pharmacol., 1978, 53, 113-116) and by the group from the University of Edinburgh (Pharmacological Experiments on Isolated Preparations, Edinburgh, Livingstone, 1970). The aortas isolated without the endothelium are prepared according to the technique described by R. Furchgott et al. (J. Cardiol. Pharmacol., 1984, 6, p. 336-p. 343).
2) Effect on the basal tension in the aorta arteries with and without endothelium (basal tension=2 grams).
Calcium dobesilate at concentrations between 10^−8M and 10^−4 relaxes, in a dose-dependent way, the aortas subjected to a basal tension of 2 grams. The maximum relaxation was 44% for the arteries with endothelium and 48% for the arteries without endothelium.

The test system is the same in assay [3]. As to the kind of experiment: Effect on the noradrenalin concentration/effect curve in aorta with and without endothelium. The format is cell-based, rabbit. The following applies: concentration of 10^−6M. The procedure:
as §1
3) Effect on the noradrenalin concentration/effect curve.
In arteries with the intact endothelium, calcium dobesilate at a concentration of 10^−6M inhibits a 44% the contraction obtained with 10 ^−4M noradrenalin.

Assay [4] has the same test system. As to the kind of experiment: Relaxation of the contraction of isolated aorta maintained with 10^−6 M noradrenalin (in vitro). The format is cell-based, rabbit. The following applies: aorta contraction maintained with 10^−6 M noradrenalin; concentrations between 10^−4M and 10^−11M. The procedure: as §1
1) Effect on the contraction of the aorta maintained with 10^−6 M noradrenalin.
Calcium dobesilate relaxes the contraction of noradrenalin in a way dependent on the concentration (between 10^−4M and 10^−11M). The maximum relaxation was 70%.

Assay [5] deals with aortas originating from the treated rabbits. Put plainly: Protective effect on the endothelium: relaxation of noradrenalin-contracted aortas from rabbits with vitamin D2 overdose. It is filed as in vivo, rabbit. The following applies: 10^−6M noradrenalin, calcium dobesilate between 10^−11M and 10^−5M on the artery. The method, then:
The protective effect on the endothelium with calcium dobesilate was studied in the rabbit.
To do this, the arterial endothelium in rabbits is damaged by a daily treatment with an overdose of vitamin D2 and three groups of animals are used in the study:
II—Hypervitaminosis D2+50 mg/kg/day calcium dobesilate.
The studies are carried out with arteries originating from the treated rabbits by measuring the effect on the contraction of the aorta maintained with 10^−6M noradrenalin.
Calcium dobesilate (between 10^−11M and 10^−5M) relaxes in a dose-dependent way the contraction due to noradrenalin. The least relaxation corresponds to the hypervitaminosis D2 group (group I), whereas the maximum relaxation is obtained with the aortas of the group treated with calcium dobesilate (group II).
The maximum relaxation obtained for each group was as follows: […]

As for `CCNCC.O=S(=O)(O)c1cc(O)ccc1O` [ethamsylate, Diethylamine 2,5-dihydroxybenzenesulfonate], the “effects on the endothelium” value in assay [1] is “facilitating endothelium-dependent vascular relaxation”.

In the case of `CCNCC.CCNCC.O=S(=O)(O)c1cc(O)c(S(=O)(=O)O)cc1O` [persilate, Bis(diethylamine) 2,5-dihydroxybenzene-1,4-disulfonate], in assay [1], the “effects on the endothelium” value was “facilitating endothelium-dependent vascular relaxation”.

Consider “Calcium 2,5-dihydroxybenzenesulfonate [calcium dobesilate]”, for which the “effects on the endothelium” value in assay [1] is given as “facilitating endothelium-dependent vascular relaxation”. For the same molecule, the “maximum relaxation of basal tension” value in assay [2] (arteries with endothelium) is on record as 44%; in assay [2] (arteries without endothelium), 48%. Besides, in assay [3] (arteries with the intact endothelium), the “inhibition of the contraction obtained with 10^−4M noradrenalin” value was 44%. For the same molecule, the “effect on the noradrenalin concentration/effect curve” value in assay [3] (arteries without endothelium) is “no modification of the curve”. For the same molecule, in assay [4], the “maximum relaxation of the contraction of noradrenalin” value is listed as 70%. Further, the figures for the “maximum relaxation of the contraction due to noradrenalin” value in assay [5] (aortas of Group I (hypervitaminosis D2)), in assay [5] (aortas of Group II (hypervitaminosis D2 + 50 mg/kg/day calcium dobesilate)) and in assay [5] (aortas of Group O (control rabbits)) were 52%, 100% and 69%, respectively.

Source of the values: patent publication US6403643B1, “Use of 2,5-dihydroxybenzenesulfonic derivatives for the normalization of endothelial function” (Laboratories del Dr. Esteve, S.A., priority 1997, dated 2002).
